Values of other authors in publication PMC9851200, “Multiparameter phenotypic screening for endogenous TFEB and TFE3 translocation identifies novel chemical series modulating lysosome function” (Autophagy, 2022).

Experiments:
Design in all cases: method as in original PKIS2 published data
[1] = target: kinases (KINOMEscan panel) (Homo sapiens, UniProt P29597); settings: Published KINOMEscan, ref original PKIS2 published data, cited from earlier work
[2] = target: kinases (KINOMEscan panel) (Homo sapiens, UniProt P50750); settings: kinase CDK9; Published KINOMEscan; ref original PKIS2 published data; cited from earlier work
[3] = target: T1, kinases (KINOMEscan panel) (Homo sapiens, UniProt P52333); settings: kinase JAK3(JH1domain-catalytic); Published KINOMEscan; ref original PKIS2 published data; cited from earlier work
T1 sequence (P52333 1-1124): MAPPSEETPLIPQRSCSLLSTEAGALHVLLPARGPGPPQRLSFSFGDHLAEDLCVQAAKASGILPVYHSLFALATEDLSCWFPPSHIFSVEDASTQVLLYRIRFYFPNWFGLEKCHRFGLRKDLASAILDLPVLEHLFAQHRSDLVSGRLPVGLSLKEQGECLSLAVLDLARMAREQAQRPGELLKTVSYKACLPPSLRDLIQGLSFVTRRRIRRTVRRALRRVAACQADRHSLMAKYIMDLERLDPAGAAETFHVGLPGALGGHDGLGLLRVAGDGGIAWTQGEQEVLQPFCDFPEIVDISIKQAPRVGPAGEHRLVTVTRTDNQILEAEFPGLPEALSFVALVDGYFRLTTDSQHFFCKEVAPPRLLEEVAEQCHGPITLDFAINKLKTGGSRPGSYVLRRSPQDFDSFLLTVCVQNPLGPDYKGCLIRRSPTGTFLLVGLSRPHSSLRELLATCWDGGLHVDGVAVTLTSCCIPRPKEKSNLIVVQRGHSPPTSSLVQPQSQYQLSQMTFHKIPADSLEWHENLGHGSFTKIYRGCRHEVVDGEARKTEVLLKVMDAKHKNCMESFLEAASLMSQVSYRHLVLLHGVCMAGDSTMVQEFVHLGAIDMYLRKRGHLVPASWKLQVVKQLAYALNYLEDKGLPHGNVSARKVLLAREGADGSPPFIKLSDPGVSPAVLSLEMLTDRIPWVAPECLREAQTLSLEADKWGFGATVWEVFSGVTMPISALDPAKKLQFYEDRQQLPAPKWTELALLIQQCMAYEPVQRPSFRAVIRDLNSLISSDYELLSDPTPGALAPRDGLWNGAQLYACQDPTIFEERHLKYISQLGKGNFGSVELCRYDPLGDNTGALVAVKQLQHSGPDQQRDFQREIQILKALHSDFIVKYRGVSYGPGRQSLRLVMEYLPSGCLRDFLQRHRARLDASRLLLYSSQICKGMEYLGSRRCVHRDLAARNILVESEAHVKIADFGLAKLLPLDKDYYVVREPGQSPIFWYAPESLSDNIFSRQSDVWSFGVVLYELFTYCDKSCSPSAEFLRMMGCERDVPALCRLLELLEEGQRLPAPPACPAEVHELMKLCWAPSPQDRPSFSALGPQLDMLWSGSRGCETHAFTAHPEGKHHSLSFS

[4] = target: T2, kinases (KINOMEscan panel) (Homo sapiens, UniProt Q06418); settings: Published KINOMEscan; ref original PKIS2 published data; cited from earlier work
T2 sequence (Q06418 41-890): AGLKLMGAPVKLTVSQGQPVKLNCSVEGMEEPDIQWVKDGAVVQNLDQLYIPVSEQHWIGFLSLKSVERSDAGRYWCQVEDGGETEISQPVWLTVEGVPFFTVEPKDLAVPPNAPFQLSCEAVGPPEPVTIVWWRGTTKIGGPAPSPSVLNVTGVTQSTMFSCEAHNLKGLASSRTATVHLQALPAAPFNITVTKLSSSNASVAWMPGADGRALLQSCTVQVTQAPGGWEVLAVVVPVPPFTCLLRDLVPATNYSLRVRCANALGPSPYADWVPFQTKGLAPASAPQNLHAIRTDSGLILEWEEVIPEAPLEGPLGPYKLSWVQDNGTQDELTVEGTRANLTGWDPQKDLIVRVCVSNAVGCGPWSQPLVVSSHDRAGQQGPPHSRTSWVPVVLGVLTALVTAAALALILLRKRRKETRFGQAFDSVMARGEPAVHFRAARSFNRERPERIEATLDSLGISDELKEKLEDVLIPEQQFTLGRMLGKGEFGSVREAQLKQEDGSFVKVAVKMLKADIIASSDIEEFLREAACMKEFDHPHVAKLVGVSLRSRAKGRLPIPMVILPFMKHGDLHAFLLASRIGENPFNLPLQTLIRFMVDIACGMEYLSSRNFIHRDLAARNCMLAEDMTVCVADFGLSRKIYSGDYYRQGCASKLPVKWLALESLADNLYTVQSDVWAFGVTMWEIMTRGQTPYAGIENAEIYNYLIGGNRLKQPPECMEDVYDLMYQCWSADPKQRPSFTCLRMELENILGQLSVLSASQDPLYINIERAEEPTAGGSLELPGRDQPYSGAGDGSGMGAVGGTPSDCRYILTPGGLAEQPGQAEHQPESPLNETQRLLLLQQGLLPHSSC

[5] = target: kinases (KINOMEscan panel) (Homo sapiens, UniProt Q2M2I8); settings: AAK1; Published KINOMEscan; ref original PKIS2 published data; cited from earlier work
[6] = target: T3, kinases (KINOMEscan panel) (Homo sapiens, UniProt Q96D53); settings: kinase COQ8B; Published KINOMEscan; ref original PKIS2 published data; cited from earlier work
T3 sequence (Q96D53 1-544): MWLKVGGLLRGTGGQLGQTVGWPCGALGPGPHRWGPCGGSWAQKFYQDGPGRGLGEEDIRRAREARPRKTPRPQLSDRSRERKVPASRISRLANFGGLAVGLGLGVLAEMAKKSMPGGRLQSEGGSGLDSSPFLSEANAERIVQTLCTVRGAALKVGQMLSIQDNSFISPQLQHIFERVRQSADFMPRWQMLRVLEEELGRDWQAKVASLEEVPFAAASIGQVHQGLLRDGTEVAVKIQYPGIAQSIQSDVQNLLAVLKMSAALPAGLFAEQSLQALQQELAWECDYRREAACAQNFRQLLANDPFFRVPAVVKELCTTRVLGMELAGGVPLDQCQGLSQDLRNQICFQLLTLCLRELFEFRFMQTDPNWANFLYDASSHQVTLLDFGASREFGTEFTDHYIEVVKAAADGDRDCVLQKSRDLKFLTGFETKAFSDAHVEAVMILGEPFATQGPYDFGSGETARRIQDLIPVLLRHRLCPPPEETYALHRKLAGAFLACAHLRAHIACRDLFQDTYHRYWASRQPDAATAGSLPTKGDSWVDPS

kinases (KINOMEscan panel) (Homo sapiens, UniProt P29597), sequence (P29597 whole entry): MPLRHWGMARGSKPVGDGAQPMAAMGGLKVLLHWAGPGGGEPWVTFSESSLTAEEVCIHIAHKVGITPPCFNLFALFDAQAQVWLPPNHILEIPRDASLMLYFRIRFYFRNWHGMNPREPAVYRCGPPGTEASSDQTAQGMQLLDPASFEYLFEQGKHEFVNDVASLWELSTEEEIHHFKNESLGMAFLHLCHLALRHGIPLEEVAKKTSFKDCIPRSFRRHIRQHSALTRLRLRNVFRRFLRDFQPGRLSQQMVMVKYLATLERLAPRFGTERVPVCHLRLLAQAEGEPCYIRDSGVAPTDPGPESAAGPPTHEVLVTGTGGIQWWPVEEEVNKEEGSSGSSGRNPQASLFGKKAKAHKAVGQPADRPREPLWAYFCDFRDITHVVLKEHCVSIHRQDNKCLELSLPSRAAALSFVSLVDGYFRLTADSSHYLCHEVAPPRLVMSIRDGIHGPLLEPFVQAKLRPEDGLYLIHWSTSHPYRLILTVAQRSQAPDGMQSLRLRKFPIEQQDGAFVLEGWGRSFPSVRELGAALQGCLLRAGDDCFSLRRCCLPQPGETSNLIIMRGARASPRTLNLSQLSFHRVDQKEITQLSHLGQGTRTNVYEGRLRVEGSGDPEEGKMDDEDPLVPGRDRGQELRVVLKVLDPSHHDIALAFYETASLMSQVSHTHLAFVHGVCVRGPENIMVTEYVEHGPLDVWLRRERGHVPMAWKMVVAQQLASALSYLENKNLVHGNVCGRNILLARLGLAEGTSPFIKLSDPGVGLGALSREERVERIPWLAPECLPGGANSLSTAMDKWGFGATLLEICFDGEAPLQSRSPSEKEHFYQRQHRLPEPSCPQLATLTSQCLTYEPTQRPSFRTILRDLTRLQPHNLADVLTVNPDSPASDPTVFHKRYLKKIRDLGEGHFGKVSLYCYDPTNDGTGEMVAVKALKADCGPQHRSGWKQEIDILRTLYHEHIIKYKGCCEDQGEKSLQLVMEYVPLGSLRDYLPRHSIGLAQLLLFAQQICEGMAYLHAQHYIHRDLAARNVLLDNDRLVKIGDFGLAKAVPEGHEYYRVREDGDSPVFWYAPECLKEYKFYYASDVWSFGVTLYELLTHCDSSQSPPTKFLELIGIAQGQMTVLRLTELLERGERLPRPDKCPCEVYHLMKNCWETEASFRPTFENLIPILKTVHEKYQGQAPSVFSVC
kinases (KINOMEscan panel) (Homo sapiens, UniProt P50750), sequence (P50750 whole entry): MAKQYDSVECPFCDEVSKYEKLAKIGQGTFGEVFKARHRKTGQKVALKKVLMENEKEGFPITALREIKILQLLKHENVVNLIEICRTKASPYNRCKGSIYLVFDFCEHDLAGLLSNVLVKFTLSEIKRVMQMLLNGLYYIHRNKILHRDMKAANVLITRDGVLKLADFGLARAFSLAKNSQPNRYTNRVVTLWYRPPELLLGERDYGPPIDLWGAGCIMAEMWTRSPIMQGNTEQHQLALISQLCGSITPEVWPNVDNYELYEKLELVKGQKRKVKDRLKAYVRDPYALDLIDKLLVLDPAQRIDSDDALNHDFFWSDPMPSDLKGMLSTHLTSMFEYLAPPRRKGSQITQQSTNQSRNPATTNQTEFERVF
kinases (KINOMEscan panel) (Homo sapiens, UniProt Q2M2I8), sequence (Q2M2I8 whole entry): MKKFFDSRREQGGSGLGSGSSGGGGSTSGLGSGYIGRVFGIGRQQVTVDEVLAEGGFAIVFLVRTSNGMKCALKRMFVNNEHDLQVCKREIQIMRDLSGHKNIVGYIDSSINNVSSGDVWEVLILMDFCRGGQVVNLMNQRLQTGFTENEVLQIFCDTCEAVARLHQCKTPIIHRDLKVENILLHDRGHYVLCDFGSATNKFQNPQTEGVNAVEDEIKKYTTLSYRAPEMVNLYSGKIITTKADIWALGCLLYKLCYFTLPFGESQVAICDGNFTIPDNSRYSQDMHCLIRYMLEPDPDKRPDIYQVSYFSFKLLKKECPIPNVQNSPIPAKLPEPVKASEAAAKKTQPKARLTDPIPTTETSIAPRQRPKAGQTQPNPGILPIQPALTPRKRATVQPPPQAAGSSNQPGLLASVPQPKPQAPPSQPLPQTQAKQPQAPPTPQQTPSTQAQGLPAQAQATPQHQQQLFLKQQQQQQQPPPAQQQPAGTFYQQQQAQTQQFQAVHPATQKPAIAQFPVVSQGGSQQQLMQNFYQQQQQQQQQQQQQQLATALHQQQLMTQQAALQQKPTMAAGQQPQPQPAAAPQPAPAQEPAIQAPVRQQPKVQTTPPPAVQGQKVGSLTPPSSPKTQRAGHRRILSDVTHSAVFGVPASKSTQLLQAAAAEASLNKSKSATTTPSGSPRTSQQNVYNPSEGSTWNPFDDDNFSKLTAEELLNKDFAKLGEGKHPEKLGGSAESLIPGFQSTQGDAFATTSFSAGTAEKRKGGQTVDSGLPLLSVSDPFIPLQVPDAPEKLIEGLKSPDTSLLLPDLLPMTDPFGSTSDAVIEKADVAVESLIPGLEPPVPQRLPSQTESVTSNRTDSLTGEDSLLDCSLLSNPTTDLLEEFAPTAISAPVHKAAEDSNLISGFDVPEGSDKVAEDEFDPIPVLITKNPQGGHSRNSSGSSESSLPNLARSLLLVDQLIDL

Q: For Cc1cccc(-c2nc(Nc3ccncc3)c3ccccc3n2)n1 [NK215], which “KINOMEscan TYK2(JH2domain-pseudokinase)” value ([1]; TYK2(JH2domain-pseudokinase)) is on record?
A: 40

Q: What about the “KINOMEscan TYK2(JH1domain-catalytic)” value ([1]; kinase TYK2(JH1domain-catalytic)) of the same compound?
A: 8

Q: And the “KINOMEscan CDK9” value [2]?
A: 0

Q: And the “KINOMEscan JAK3(JH1domain-catalytic)” value [3]?
A: 0

Q: And the “KINOMEscan TYRO3” value [4]?
A: 0

Q: And the “KINOMEscan AAK1” value [5]?
A: 2

Q: And the “KINOMEscan COQ8B” value [6]?
A: 0
